Assay results taken from patent US20080103162A1, “Antipruritics” (priority 2001, published 2008).

How the values were obtained:
Assay type in all cases: in vivo
[1] = test system: nociceptine receptor defective mice; experiment: compound 48/80-induced scratching behavior in nociceptine receptor defective mice (Test Example 2); conditions: intravenous, five minutes before compound 48/80, FIG. 4(b)
male ddY mice = experiment: compound 48/80-induced scratching behavior, intravenous administration (Test Example 1); conditions: intravenously administered five minutes before compound 48/80 (50 μg/0.1 ml, subcutaneous, back), FIG. 1 to FIG. 3
wild type mice = experiment: compound 48/80-induced scratching behavior in wild type mice (Test Example 2); conditions: wild type mice (backcrossed with C57BL/6J); intravenous, five minutes before compound 48/80; FIG. 4(a)
male ICR mice [2] = experiment: eye scratching behavior induced by instillation of serotonin (Test Example 3); conditions: instillation of 10 μl of compound five minutes before 10 μl of 1% serotonin hydrochloride in right eye, FIG. 5
Procedure: After the instillation of 10 μl of 1% serotonin hydrochloride (hereinafter referred to as serotonin) in the right eye of 4-6 weeks-old male ICR mice, the number of scratching behavior in the vicinity of the eye induced by the instillation of serotonin for 10 minutes. […] Five minutes before the instillation of serotonin, the instillation of 10 μl of the compound was performed. In a control group, the instillation of distilled water was performed.

male ICR mice [3] = experiment: spontaneous scratching behavior of mice with cutaneous barrier disruption (Test Example 4); conditions: 0.1% in 100% ethanol, applied (100 μl) in vicinity of shaved portion, before vs after application, FIG. 6
Procedure: The rostral back portion of 5 weeks-old male ICR mice was shaved under etherization, and then cutaneous barrier was disrupted by carrying out a treatment of applying a mixed solution of acetone and ether (1:1) to the shaved portion and applying distilled water twice a day every day (10 days). […] The compound was applied (100 μl) in the vicinity of the shaved portion.

COc1ccc2nc(NC(=O)c3ccc(Cl)cc3)nc(N[C@H]3CCCC[C@H]3NC(=N)N)c2c1.Cl.Cl [compound A, (1R,2S)—N-amidino-2-[2-(4-chlorobenzoylamino)-6-methoxyquinazolin-4-yl]aminocyclohexylamine dihydrochloride]
scratching behavior suppressing effect (number of scratching behavior for 30 minutes) [1]: completely disappeared
scratching behavior suppressing effect (number of scratching behavior for 30 minutes) (male ddY mice): strong scratching behavior suppressing effect
scratching behavior suppressing effect (number of scratching behavior for 30 minutes) (wild type mice): strong scratching behavior suppressing effect

CCc1ccc(OCc2ccccc2C(=O)Nc2ccc3nc(C)cc(N)c3c2)cc1.Cl [compound C, N-(4-amino-2-methyl-6-quinolyl)-2-[(4-ethylphenoxy)methyl]benzamide hydrochloride, reference compound]
scratching behavior suppressing effect (number of scratching behavior for 30 minutes) (male ddY mice): strong scratching behavior suppressing effect

Cc1ccc2nc(NC(=O)c3ccc(Cl)cc3)nc(N[C@H]3CCCC[C@H]3NC(=N)N)c2c1.Cl.Cl [compound D, (1R,2S)—N-amidino-2-{[2-(4-chlorobenzoylamino)-6-methylquinazolin-4-yl]amino}cyclohexylamine dihydrochloride]
suppression of eye scratching behavior induced by instillation of serotonin (number of scratching behavior for 10 minutes) (male ICR mice [2]): strongly suppressed
suppression of spontaneous scratching behavior induced by cutaneous barrier disruption (number of scratching behavior for 30 minutes) (male ICR mice [3]): strongly suppressed
